# Columns and labels:
# [1] = tested on: barnyardgrass; test: Test B pre-/postemergence herbicide test; assay type: in vivo, Echinochloa crus-galli; settings: for Barnyardgrass plant response rating (0 to 100 scale): 0 = no effect, 100 = complete control; for Barnyardgrass plant response rating (0 to 100 scale) / Plant response rating, Barnyardgrass: preemergence; for Plant response rating, Barnyardgrass: visual rating 0-100, 0 no effect, 100 complete control; for Barnyardgrass plant response rating: postemergence, visual rating, scale 0 (no effect) to 100 (complete control)
# Summary of the method: (§1)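 Visual rating, 0 (no effect) to 100 (complete control), versus untreated controls after 13–15 d in greenhouse. Pre- and postemergence applications (postemergence plants 2–18 cm, 1–4 leaves); flooded paddy arm at 2-leaf stage. Compounds in non-phytotoxic solvent plus surfactant.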
# [2] = tested on: Surinam grass; test: Test B pre-/postemergence herbicide test; assay type: in vivo, Urochloa decumbens; settings: for Surinam Grass plant response rating (0 to 100 scale): 0 = no effect, 100 = complete control; for Surinam Grass plant response rating (0 to 100 scale) / Plant response rating, Surinam Grass: preemergence; for Plant response rating, Surinam Grass: visual rating 0-100, 0 no effect, 100 complete control; for Surinam Grass plant response rating: postemergence, visual rating, scale 0 (no effect) to 100 (complete control)
# Summary of the method: (§2)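 Formulation: non-phytotoxic solvent mix with surfactant. Timing: preemergence on seed and postemergence on 2–18 cm plants, applied concurrently. Readout after 13–15 d greenhouse: visual 0–100 control rating against controls.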
# [3] = tested on: cocklebur; test: Test B pre-/postemergence herbicide test; assay type: in vivo, Xanthium strumarium; settings: for Cocklebur plant response rating (0 to 100 scale): 0 = no effect, 100 = complete control; for Cocklebur plant response rating (0 to 100 scale) / Plant response rating, Cocklebur: preemergence; for Plant response rating, Cocklebur: visual rating 0-100, 0 no effect, 100 complete control; for Cocklebur plant response rating: postemergence, visual rating, scale 0 (no effect) to 100 (complete control)
# Summary of the method: as §1
# [4] = tested on: corn; test: Test B pre-/postemergence herbicide test; assay type: in vivo, Zea mays; settings: for Corn plant response rating (0 to 100 scale): 0 = no effect, 100 = complete control; for Corn plant response rating (0 to 100 scale) / Plant response rating, Corn: preemergence; for Plant response rating, Corn: visual rating 0-100, 0 no effect, 100 complete control; for Corn plant response rating: postemergence, visual rating, scale 0 (no effect) to 100 (complete control)
# Summary of the method: as §2
# [5] = tested on: large crabgrass; test: Test B pre-/postemergence herbicide test; assay type: in vivo, Digitaria sanguinalis; settings: for Crabgrass, Large plant response rating (0 to 100 scale): 0 = no effect, 100 = complete control; for Crabgrass, Large plant response rating (0 to 100 scale) / Plant response rating, Crabgrass, Large: preemergence; for Plant response rating, Crabgrass, Large: visual rating 0-100, 0 no effect, 100 complete control; for Crabgrass, Large plant response rating: postemergence, visual rating, scale 0 (no effect) to 100 (complete control)
# Summary of the method: as §2
# [6] = tested on: giant foxtail; test: Test B pre-/postemergence herbicide test; assay type: in vivo, Setaria faberi; settings: for Foxtail, Giant plant response rating (0 to 100 scale): 0 = no effect, 100 = complete control; for Foxtail, Giant plant response rating (0 to 100 scale) / Plant response rating, Foxtail, Giant: preemergence; for Plant response rating, Foxtail, Giant: visual rating 0-100, 0 no effect, 100 complete control; for Foxtail, Giant plant response rating: postemergence, visual rating, scale 0 (no effect) to 100 (complete control)
# Summary of the method: as §2
# [7] = tested on: morningglory; test: Test B pre-/postemergence herbicide test; assay type: in vivo, Ipomoea coccinea; settings: for Morningglory plant response rating (0 to 100 scale): 0 = no effect, 100 = complete control; for Morningglory plant response rating (0 to 100 scale) / Plant response rating, Morningglory: preemergence; for Plant response rating, Morningglory: visual rating 0-100, 0 no effect, 100 complete control; for Morningglory plant response rating: postemergence, visual rating, scale 0 (no effect) to 100 (complete control)
# Summary of the method: as §1
# [8] = tested on: pigweed; test: Test B pre-/postemergence herbicide test; assay type: in vivo, Amaranthus retroflexus; settings: for Pigweed plant response rating (0 to 100 scale): 0 = no effect, 100 = complete control; for Pigweed plant response rating (0 to 100 scale) / Plant response rating, Pigweed: preemergence; for Plant response rating, Pigweed: visual rating 0-100, 0 no effect, 100 complete control; for Pigweed plant response rating: postemergence, visual rating, scale 0 (no effect) to 100 (complete control)
# Summary of the method: as §2
# [9] = tested on: velvetleaf; test: Test B pre-/postemergence herbicide test; assay type: in vivo, Abutilon theophrasti; settings: for Velvetleaf plant response rating (0 to 100 scale): 0 = no effect, 100 = complete control; for Velvetleaf plant response rating (0 to 100 scale) / Plant response rating, Velvetleaf: preemergence; for Plant response rating, Velvetleaf: visual rating 0-100, 0 no effect, 100 complete control; for Velvetleaf plant response rating: postemergence, visual rating, scale 0 (no effect) to 100 (complete control)
# Summary of the method: as §2
# [10] = tested on: blackgrass; test: Test B postemergence herbicide test; assay type: in vivo, Alopecurus myosuroides; settings: postemergence, visual rating, scale 0 (no effect) to 100 (complete control)
# Summary of the method: (§3)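 Visual ratings, 0 (no effect) to 100 (complete control), made versus controls after 13–15 d greenhouse. Paddy plants treated at 2-leaf stage; postemergence plants at 1- to 4-leaf stage, 2–18 cm tall.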
# [11] = tested on: wheat; test: Test B postemergence herbicide test; assay type: in vivo, Triticum aestivum; set-up: key to Wheat plant response rating: 0 = no effect, 100 = complete control; settings: postemergence, visual rating, scale 0 (no effect) to 100 (complete control)
# Summary of the method: as §3
# [12] = tested on: wild oat; test: Test B postemergence herbicide test; assay type: in vivo, Avena fatua; settings: postemergence, visual rating, scale 0 (no effect) to 100 (complete control)
# Summary of the method: as §3
# [13] = tested on: rice; test: Test B flooded paddy test; assay type: in vivo, Oryza sativa; settings: 1000 g ai/ha, visual rating, scale 0 to 100 (0 no effect, 100 complete control), 13 to 15 days
# Summary of the method: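 Scale 0–100: zero equals no visible effect, 100 complete control, judged by eye relative to controls. Timing: 13 to 15 days in greenhouse post-treatment. Growth stage at spraying: two leaves (paddy) or one to four leaves, 2–18 cm (postemergence).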
# [14] = tested on: small flower umbrella sedge; test: Test B flooded paddy test; assay type: in vivo, Cyperus difformis; settings: 1000 g ai/ha, visual rating, scale 0 to 100 (0 no effect, 100 complete control), 13 to 15 days
# Summary of the method: as §3
# [15] = tested on: ducksalad; test: Test B flooded paddy test; assay type: in vivo, Heteranthera limosa; settings: 1000 g ai/ha, visual rating, scale 0 to 100 (0 no effect, 100 complete control), 13 to 15 days
# Summary of the method: as §3
# [16] = tested on: barnyardgrass; test: Test B flooded paddy test; assay type: in vivo, Echinochloa crus-galli; settings: 1000 g ai/ha, visual rating, scale 0 to 100 (0 no effect, 100 complete control), 13 to 15 days
# Summary of the method: as §3
compound,measurement,setting,value
CCNC(=O)c1cccc(NC(=O)c2sc(C(C)(C)C)nc2C)c1 [Compound 198],Barnyardgrass plant response rating (0 to 100 scale),[1]; 125 g ai/ha,40
same,"Plant response rating, Barnyardgrass",[1]; 500 g ai/ha,90
same,Barnyardgrass plant response rating,[1]; 125 g ai/ha,0
same,Barnyardgrass plant response rating,[1]; 500 g ai/ha,30
same,Surinam Grass plant response rating (0 to 100 scale),[2]; 125 g ai/ha,10
same,"Plant response rating, Surinam Grass",[2]; 500 g ai/ha,50
same,Surinam Grass plant response rating,[2]; 125 g ai/ha,20
same,Surinam Grass plant response rating,[2]; 500 g ai/ha,20
same,Cocklebur plant response rating (0 to 100 scale),[3]; 125 g ai/ha,0
same,"Plant response rating, Cocklebur",[3]; 500 g ai/ha,20
same,Cocklebur plant response rating,[3]; 125 g ai/ha,60
same,Cocklebur plant response rating,[3]; 500 g ai/ha,90
same,Corn plant response rating (0 to 100 scale),[4]; 125 g ai/ha,0
same,"Plant response rating, Corn",[4]; 500 g ai/ha,40
same,Corn plant response rating,[4]; 125 g ai/ha,20
same,Corn plant response rating,[4]; 500 g ai/ha,70
same,"Crabgrass, Large plant response rating (0 to 100 scale)",[5]; 125 g ai/ha,80
same,"Plant response rating, Crabgrass, Large",[5]; 500 g ai/ha,100
same,"Crabgrass, Large plant response rating",[5]; 125 g ai/ha,10
same,"Crabgrass, Large plant response rating",[5]; 500 g ai/ha,20
same,"Foxtail, Giant plant response rating (0 to 100 scale)",[6]; 125 g ai/ha,20
same,"Plant response rating, Foxtail, Giant",[6]; 500 g ai/ha,100
same,"Foxtail, Giant plant response rating",[6]; 125 g ai/ha,20
same,"Foxtail, Giant plant response rating",[6]; 500 g ai/ha,30
same,Morningglory plant response rating (0 to 100 scale),[7]; 125 g ai/ha,10
same,"Plant response rating, Morningglory",[7]; 500 g ai/ha,80
same,Morningglory plant response rating,[7]; 125 g ai/ha,60
same,Morningglory plant response rating,[7]; 500 g ai/ha,80
same,Pigweed plant response rating (0 to 100 scale),[8]; 125 g ai/ha,90
same,"Plant response rating, Pigweed",[8]; 500 g ai/ha,100
same,Pigweed plant response rating,[8]; 125 g ai/ha,50
same,Pigweed plant response rating,[8]; 500 g ai/ha,50
same,Velvetleaf plant response rating (0 to 100 scale),[9]; 125 g ai/ha,0
same,"Plant response rating, Velvetleaf",[9]; 500 g ai/ha,60
same,Velvetleaf plant response rating,[9]; 125 g ai/ha,20
same,Velvetleaf plant response rating,[9]; 500 g ai/ha,20
same,Blackgrass plant response rating,[10]; 125 g ai/ha,0
same,Blackgrass plant response rating,[10]; 500 g ai/ha,10
same,Wheat plant response rating,[11]; 125 g ai/ha,0
same,Wheat plant response rating,[11]; 500 g ai/ha,10
same,"Oat, Wild plant response rating",[12]; 125 g ai/ha,20
same,"Oat, Wild plant response rating",[12]; 500 g ai/ha,30
same,Rice plant response rating,[13],20
same,"Sedge, Umbrella plant response rating",[14],70
same,Ducksalad plant response rating,[15],70
same,Barnyardgrass plant response rating,[16],20
C=CCNC(=O)c1cccc(NC(=O)c2sc(C(C)(C)C)nc2CC)c1 [Compound 207],Barnyardgrass plant response rating (0 to 100 scale),[1]; 125 g ai/ha,80
same,"Plant response rating, Barnyardgrass",[1]; 500 g ai/ha,90
same,Barnyardgrass plant response rating,[1]; 125 g ai/ha,20
same,Barnyardgrass plant response rating,[1]; 500 g ai/ha,20
same,Surinam Grass plant response rating (0 to 100 scale),[2]; 125 g ai/ha,40
same,"Plant response rating, Surinam Grass",[2]; 500 g ai/ha,60
same,Surinam Grass plant response rating,[2]; 125 g ai/ha,20
same,Surinam Grass plant response rating,[2]; 500 g ai/ha,20
same,Cocklebur plant response rating (0 to 100 scale),[3]; 125 g ai/ha,10
same,"Plant response rating, Cocklebur",[3]; 500 g ai/ha,20
same,Cocklebur plant response rating,[3]; 125 g ai/ha,40
same,Cocklebur plant response rating,[3]; 500 g ai/ha,80
same,Corn plant response rating (0 to 100 scale),[4]; 125 g ai/ha,10
same,"Plant response rating, Corn",[4]; 500 g ai/ha,50
same,Corn plant response rating,[4]; 125 g ai/ha,20
same,Corn plant response rating,[4]; 500 g ai/ha,20
same,"Crabgrass, Large plant response rating (0 to 100 scale)",[5]; 125 g ai/ha,70
same,"Plant response rating, Crabgrass, Large",[5]; 500 g ai/ha,100
same,"Crabgrass, Large plant response rating",[5]; 125 g ai/ha,20
same,"Crabgrass, Large plant response rating",[5]; 500 g ai/ha,20
same,"Foxtail, Giant plant response rating (0 to 100 scale)",[6]; 125 g ai/ha,50
same,"Plant response rating, Foxtail, Giant",[6]; 500 g ai/ha,90
same,"Foxtail, Giant plant response rating",[6]; 125 g ai/ha,20
same,"Foxtail, Giant plant response rating",[6]; 500 g ai/ha,20
same,Morningglory plant response rating (0 to 100 scale),[7]; 125 g ai/ha,20
same,"Plant response rating, Morningglory",[7]; 500 g ai/ha,40
same,Morningglory plant response rating,[7]; 125 g ai/ha,10
same,Morningglory plant response rating,[7]; 500 g ai/ha,20
same,Pigweed plant response rating (0 to 100 scale),[8]; 125 g ai/ha,90
same,"Plant response rating, Pigweed",[8]; 500 g ai/ha,100
same,Pigweed plant response rating,[8]; 125 g ai/ha,30
same,Pigweed plant response rating,[8]; 500 g ai/ha,60
same,Velvetleaf plant response rating (0 to 100 scale),[9]; 125 g ai/ha,20
same,"Plant response rating, Velvetleaf",[9]; 500 g ai/ha,60
same,Velvetleaf plant response rating,[9]; 125 g ai/ha,20
same,Velvetleaf plant response rating,[9]; 500 g ai/ha,30
same,Blackgrass plant response rating,[10]; 125 g ai/ha,0
same,Blackgrass plant response rating,[10]; 500 g ai/ha,10
same,Wheat plant response rating,[11]; 125 g ai/ha,20
same,Wheat plant response rating,[11]; 500 g ai/ha,20
same,"Oat, Wild plant response rating",[12]; 125 g ai/ha,20
same,"Oat, Wild plant response rating",[12]; 500 g ai/ha,20
same,Rice plant response rating,[13],60
same,"Sedge, Umbrella plant response rating",[14],80
same,Ducksalad plant response rating,[15],90
same,Barnyardgrass plant response rating,[16],80

# Reference: US20060069132A1, “Azolecarboxamide herbicides” (priority 2004, published 2006)
